Assay results taken from publication PMC10165273, “Itch receptor MRGPRX4 interacts with the receptor activity–modifying proteins” (The Journal of Biological Chemistry, 2023).
“And” between values parts separate entries of the source, which are not always exact repeats. Identical values can stand only once. Like-named read-outs stand apart in the source and are kept apart here.

Target: T1, MRGPRX4 (Homo sapiens, UniProt Q96LA9)
T1 construct: expressed in transfected cells; host or cells: HEK293T
T1 sequence (Q96LA9 whole entry): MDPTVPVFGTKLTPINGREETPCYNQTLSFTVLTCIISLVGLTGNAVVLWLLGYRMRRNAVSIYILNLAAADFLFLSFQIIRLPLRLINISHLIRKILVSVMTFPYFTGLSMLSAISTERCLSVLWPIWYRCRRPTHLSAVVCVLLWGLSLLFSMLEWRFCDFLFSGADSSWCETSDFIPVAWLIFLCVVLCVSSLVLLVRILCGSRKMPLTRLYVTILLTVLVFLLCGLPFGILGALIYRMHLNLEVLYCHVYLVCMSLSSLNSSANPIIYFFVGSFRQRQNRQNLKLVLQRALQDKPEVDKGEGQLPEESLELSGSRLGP
Experiment: IP1 accumulation HTRF assay, MRGPRX4
Assay type: cell-based
Parameters: key to IP1 Basal / IP1 accumulation with YM (Figure 1c) / response to agonist, MRGPRX4 / IP1 accumulation: % IP1: unstimulated mock-transfected = 0%, fully stimulated MRGPRX4 = 100%
Details: for activation at 100 µM / activation at 20 µM / activation at 4 µM / activation at 0.8 µM / activation at […] / activation at 0.032 µM: 2 h, read-out: IP1 accumulation (normalized); for activation at 100 µM: log [nateglinide] (M) -4; for activation at 20 µM: log [nateglinide] (M) -4.69897; for activation at 4 µM: log [nateglinide] (M) -5.39794; for activation at 0.8 µM: log [nateglinide] (M) -6.09691; for activation at […]: log [nateglinide] (M) -6.79588; for activation at 0.032 µM: log [nateglinide] (M) -7.49485; for normalized IP1 accumulation: HA-MRGX4-1D4

[1] = Dox 40 ng/mL, Supplementary Figure 5b
[2] = Dox 40 ng/mL, Supplementary Figure 5c
[3] = Dox 1100 ng/mL, Supplementary Figure 5a
[4] = Dox 1100 ng/mL, Supplementary Figure 5b
[5] = Dox 1100 ng/mL, Supplementary Figure 5c
[6] = Dox 3300 ng/mL, Supplementary Figure 5a
[7] = Dox 3300 ng/mL, Supplementary Figure 5b
[8] = Dox 3300 ng/mL, Supplementary Figure 5c
[9] = MRGPRX4 (2pg), Dox 3300ng/mL, Supplementary Figure 5b
[10] = MRGPRX4, Supplementary Figure 5d-g
[11] = Dox 13 ng/mL, Supplementary Figure 5a
[12] = Dox 13 ng/mL, Supplementary Figure 5c
[13] = Dox 40 ng/mL, Supplementary Figure 5a

SMILES: CC(C)[C@H]1CC[C@H](C(=O)N[C@H](Cc2ccccc2)C(=O)O)CC1 [Nateglinide]
- activation at 100 µM [1]: 17.6%
- activation at 100 µM [2]: 58%
- activation at 100 µM [3]: 97.1%
- activation at 100 µM [4]: 25.8%
- activation at 100 µM [5]: 81.1%
- activation at 100 µM [6]: 100%
- activation at 100 µM [7]: 32.5%
- activation at 100 µM [8]: 100%
- activation at 100 µM [9]: 100%
- activation at 100 µM [10]: 100%
- activation at 100 µM (MRGPRX4 no dox, Supplementary Figure 5d-g): 1.03%
- activation at 100 µM (No Dox, Supplementary Figure 5a): 17%
- activation at 100 µM (No Dox, Supplementary Figure 5c): 17%
- activation at 20 µM [11]: 62.9%
- activation at 20 µM (Dox 13 ng/mL, Supplementary Figure 5b): 6.04%
- activation at 20 µM [12]: 25.4%
- activation at 20 µM [13]: 71.8%
- activation at 20 µM [1]: 8.95%
- activation at 20 µM [2]: 33.6%
- activation at 20 µM [3]: 83.3%
- activation at 20 µM [4]: 17.4%
- activation at 20 µM [5]: 57.5%
- activation at 20 µM [6]: 86.8%
- activation at 20 µM [7]: 23.5%
- activation at 20 µM [8]: 74.7%
- activation at 20 µM [9]: 86.8%
- activation at 20 µM [10]: 96.1%
- activation at 4 µM [11]: 29.5%
- activation at 4 µM [12]: 4.86%
- activation at 4 µM [13]: 32.9%
- activation at 4 µM [2]: 7.47%
- activation at 4 µM [3]: 46.5%
- activation at 4 µM [4]: 4.19%
- activation at 4 µM [5]: 20.2%
- activation at 4 µM [6]: 44%
- activation at 4 µM [7]: 8.69%
- activation at 4 µM [8]: 32.8%
- activation at 4 µM [9]: 44%
- activation at 4 µM [10]: 56.6%
- activation at 0.8 µM [11]: 10.1%
- activation at 0.8 µM [13]: 12.5%
- activation at 0.8 µM [3]: 19.7%
- activation at 0.8 µM [5]: 3.18%
- activation at 0.8 µM [6]: 19.9%
- activation at 0.8 µM [8]: 10.1%
- activation at 0.8 µM [9]: 19.9%
- activation at 0.8 µM [10]: 23.8%
- activation at […] [11]: 5.08%
- activation at […] [13]: 6.44%
- activation at […] [3]: 11.5%
- activation at […] [6]: 11.6%
- activation at […] [8]: 7.74%
- activation at […] [9]: 11.6%
- activation at […] [10]: 11.3%
- activation at 0.032 µM [11]: 4.57%
- activation at 0.032 µM [13]: 5.36%
- activation at 0.032 µM [3]: 10.3%
- activation at 0.032 µM [6]: 10.9%
- activation at 0.032 µM [8]: 3.46%
- activation at 0.032 µM [9]: 10.9%
- activation at 0.032 µM [10]: 13.6%
- efficacy (Figure 4a bottom, MRGPRX4 alone (reference = 100), individual replicates): 100
- Emax (Figure 4a bottom, MRGPRX4 alone (reference = 100), individual replicates, read-out: efficacy): 100%
- EC50 (Figure 4a top, MRGPRX4 alone (no RAMP), individual replicates, read-out: potency (converted)): 7.29 µM and 10.3 µM and 7.1 µM
- response to agonist, MRGPRX4 (Figure 4c-f, agonist 100µM, MRGPRX4 alone (reference = 100)): 100
- normalized IP1 accumulation (log [agonist] (M) -4): 81.552 and 83.6202
- normalized IP1 accumulation (log [agonist] (M) -4.69897): 71.4189 and 62.4618
- normalized IP1 accumulation (log [agonist] (M) -5.39794): 34.1012 and 34.3253
- normalized IP1 accumulation (log [agonist] (M) -6.09691): 18.0339 and 19.9037
- normalized IP1 accumulation (log [agonist] (M) -6.79588): 15.3353 and 14.0745
- normalized IP1 accumulation (log [agonist] (M) -7.49485): 14.2615 and 16.0131
- Emax (HEK-293T, MRGPRX4 (Fig. 1A), HEK293T, normalized to 100 μM nateglinide, read-out: IP1 Emax): 103%
- Emax (HEK-293T, MRGPRX4 (Fig. 1A), HEK293T, normalized to 100 μM nateglinide, read-out: IP1 span): 87.6%
- Emax (MRGPRX4 0.125 pg DNA/cell, individual experiments, read-out: efficacy (Figure 1b bottom)): 77.3%
- EC50 (MRGPRX4 0.125 pg DNA/cell, individual experiments, read-out: potency (Figure 1b top) (converted)): 15.9 µM and 12.3 µM and 12.6 µM
- Emax (MRGPRX4 0.25 pg DNA/cell, individual experiments, read-out: efficacy (Figure 1b bottom)): 81.4%
